{"source": "patent US8309133B2", "about": "“Nanoparticulate quinazoline derivative formulations” (Alkermes Pharma Ireland Limited, priority 2005, dated 2012)", "origin": "cited, not measured here", "key": {"[1]": {"details": "oral tablet"}, "[2]": {"details": "water at 37° C."}}, "note": "Like-named read-outs stand apart in the source and are kept apart here."}
{"smiles": "C#Cc1cccc(Nc2ncnc3cc(OCCOC)c(OCCOC)cc23)c1.Cl", "note": "[erlotinib HCl, N-(3-ethynylphenyl)-6,7-bis(2-methoxyethoxy)-4-quinazolinamine]", "values": [{"measurement": "Absorption", "setting": "[1]; administered with food", "value": 100, "unit": "%"}, {"measurement": "Absorption", "setting": "[1]; without food", "value": 60, "unit": "%"}, {"measurement": "Solubility in water", "setting": "[2]", "value": "very slightly soluble"}]}
